The source of these data is paper PMC8955773 (Pharmaceuticals, 2022).

Several values for one entry are separate records, joined by “and”; a condition that tells them apart may be missing. Equal entries are not always repeated. Entries after “also recorded” stand apart in the source; their conditions may differ. Where two headings read alike, the source gives them in different places.

Assay [1] deals with T1, Butyrylcholinesterase (EC 3.1.1.8, BChE) from equine serum (eqBChE) (Equus caballus, UniProt P81908).
T1 construct: Butyrylcholinesterase (EC 3.1.1.8, BChE) was from equine serum (eqBChE) (Sigma-Aldrich); purchased Sigma-Aldrich; host or cells: equine serum
T1 sequence (P81908 whole entry): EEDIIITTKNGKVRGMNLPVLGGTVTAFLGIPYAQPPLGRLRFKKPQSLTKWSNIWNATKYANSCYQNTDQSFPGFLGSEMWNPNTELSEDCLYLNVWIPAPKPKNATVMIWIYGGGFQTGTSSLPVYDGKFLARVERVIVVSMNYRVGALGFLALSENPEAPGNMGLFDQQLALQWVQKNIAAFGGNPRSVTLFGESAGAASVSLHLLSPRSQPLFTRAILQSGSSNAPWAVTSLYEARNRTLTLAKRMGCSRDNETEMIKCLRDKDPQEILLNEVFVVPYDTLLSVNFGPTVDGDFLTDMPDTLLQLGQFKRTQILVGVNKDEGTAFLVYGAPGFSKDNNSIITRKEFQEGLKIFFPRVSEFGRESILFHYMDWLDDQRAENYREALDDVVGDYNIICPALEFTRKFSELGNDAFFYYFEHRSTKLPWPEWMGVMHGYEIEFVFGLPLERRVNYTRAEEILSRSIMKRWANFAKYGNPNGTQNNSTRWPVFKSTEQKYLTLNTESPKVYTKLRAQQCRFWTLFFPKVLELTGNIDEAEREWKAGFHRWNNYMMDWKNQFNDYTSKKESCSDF
The assay is described as follows: Butyrylcholinesterase inhibition, Ellman's method. Format: biochemical. The settings on record: for IC50: eqBChE, BTCI substrate, pH 8.0, 37 °C, mean ± SD of three independent experiments. As to the method:
The effect of the benzofuran derivatives was evaluated on the commercial enzyme from an animal source due to its low cost and remarkable similarity with the human enzyme.
The cholinesterase inhibition activity was executed using Ellman’s method, as previously described with slight modifications.
S-Butyrylthiocholine iodide (BTCI) and 5,5′-dithiobis-(2-nitrobenzoic) acid (DTNB) (Merck/Sigma-Aldrich) were used for the determination of the BChE activity. Butyrylcholinesterase (EC 3.1.1.8, BChE) was from equine serum (eqBChE) (Sigma-Aldrich). We used 96-well plates for analysis, to each well we added 70 μL phosphate-buffered (0.1 M, pH 8.0), 4 μL different concentration of the tested compounds or dimethyl sulfoxide (for control experiment), 6 μL enzyme (final concentration 0.15 U/mL in buffer), and 100 μL DTNB (1.5 mM final). The solution was preincubated for 5 min at 37 °C, then 20 μL BTCI 1.5 mM solution as the substrate was added to the reaction mixture. The absorbance change was measured at 405 nm, with a microplate reader FLUOstar OPTIMA (BMG Labtech, Offenburg, Germany). […] Each experiment was done in triplicate.
The statistical significance of differences was evaluated using one-way analysis of variation (one-way ANOVA), and Tukey’s multiple comparisons. Results were expressed as mean ± standard deviation (SD), and statistically significant differences were evaluated with p < 0.001 as a minimal significance level.

In assay [2] the target is T1, Butyrylcholinesterase (EC 3.1.1.8, BChE) from equine serum (eqBChE).
The mark [3] stands for this setting: read-out: IC50, inhibitory effect on BChE activity.
Setting [4] is: 2-phenylbenzofurans without spacer; cited from earlier work.

As to `Oc1cccc(Cc2cc3cc(Cl)ccc3o2)c1` [Compound 15B, 5-chloro-2-(3-hydroxybenzyl)benzofuran], the IC50 in assay [1] (setting [3]) was 27.8 ± 3.07 µM.

`Oc1ccc(Cc2cc3cc(Br)ccc3o2)cc1` [Compound 9B, 5-bromo-2-(4-hydroxybenzyl)benzofuran]: in assay [1] (BChE, ratio of IC50 values), the “inhibitory activity, fold higher than 14A” value is “about 4 fold” and the “inhibitory activity, times higher than galantamine” value is 10 times. Also, the IC50 in assay [1] (setting [3]) was 2.93 µM and 2.9 µM.

On to `Oc1cccc(Cc2cc3cccc(Cl)c3o2)c1` [Compound 16B], for which the IC50 in assay [1] (setting [3]) was 61.7 ± 5.9 µM. Consider `Oc1ccc(-c2cc3cc(Cl)ccc3o2)cc1` [Compound 11A], for which the IC50 in assay [2] (2-phenylbenzofurans given for comparison; read-out: IC50, inhibitory effect on BChE activity; cited from earlier work) was more than 100 µM. `Oc1ccc(-c2cc3cc(Br)ccc3o2)cc1` [Compound 9A]: the “BChE inhibitory activity (in words)” value in assay [2] (setting [4]) is recorded as “no activity; also recorded: negligible inhibitory activity; also recorded: no BChE inhibition”. In addition, in assay [2] (read-out: IC50, inhibitory effect on BChE activity; 2-phenylbenzofurans given for comparison; cited from earlier work), the IC50 is more than 100 µM. As to `Oc1ccc(Cc2cc3cc(Cl)ccc3o2)cc1` [Compound 11B], the IC50 in assay [1] (setting [3]) was 55.7 ± 0.8 µM. As to `Oc1ccc(-c2cc3cccc(Br)c3o2)cc1` [Compound 10A], the “BChE inhibitory activity (in words)” value in assay [2] (setting [4]) is listed as “negligible inhibitory activity”. With `Oc1ccc(Cc2cc3cccc(Br)c3o2)cc1` [Compound 10B], the half-maximal inhibitory concentration (IC50) in assay [1] (setting [3]) stood at 32.6 ± 2.04 µM. Same read-out and setting: the value for `Oc1ccc(Cc2cc3cccc(Cl)c3o2)cc1` [Compound 12B] was 43 ± 5.65 µM; that for `Oc1cccc(Cc2cc3cccc(Br)c3o2)c1` [Compound 14B] was 31.37 ± 0.15 µM. As to `Oc1cccc(-c2cc3cc(Br)ccc3o2)c1` [Compound 13A], in assay [1] (IC50, inhibitory effect on BChE activity), the IC50 was determined as 10.6 ± 1.65 µM. For `Oc1cccc(Cc2cc3cc(Br)ccc3o2)c1` [Compound 13B], the IC50 in assay [1] (setting [3]) stood at 39.9 ± 4.31 µM.
